Results taken from BigSolDB 2.1.

CCOC(=O)[C@@H]1CSCN1.Cl
solubility (mole fraction)
Conditions | 283.15 K | 288.15 K | 293.15 K | 298.15 K | 303.15 K | 313.15 K | 323.15 K
in 1,4-dioxane | – | 0.000476 | 0.000593 | – | 0.000872 | 0.00156 | 0.00266
in 2-butanone | 4.1e-05 | – | 0.000107 | – | 0.00018 | 0.000298 | 0.000434
in acetone | 4e-05 | – | 0.000116 | – | 0.000348 | 0.000859 | 0.00187
in acetonitrile | 0.000408 | – | 0.00125 | – | 0.00252 | 0.00451 | 0.00664
in dichloromethane | 0.00638 | 0.01 | 0.0128 | 0.0157 | 0.0187 | – | –
in ethanol | 0.00937 | – | 0.0125 | – | 0.0193 | 0.0306 | 0.0473
in ethyl acetate | 0.000103 | – | 0.000161 | – | 0.000215 | 0.000273 | 0.000345
in isobutanol | 0.00153 | – | 0.00257 | – | 0.00495 | 0.00811 | 0.0117
in isopropanol | 0.00271 | – | 0.00323 | – | 0.00492 | 0.00807 | 0.0131
in methanol | 0.0465 | – | 0.0619 | – | 0.0835 | 0.112 | 0.142
in methyl acetate | 3.8e-05 | – | 7e-05 | – | 0.000126 | 0.000192 | 0.000276
in n-butanol | 0.00141 | – | 0.00427 | – | 0.00829 | 0.0124 | 0.017
in n-propanol | 0.00489 | – | 0.0078 | – | 0.012 | 0.0186 | 0.0298
in sec-butanol | 0.000766 | – | 0.00103 | – | 0.00182 | 0.00365 | 0.00936
in water | 0.0825 | – | 0.104 | – | 0.124 | 0.148 | 0.188
